The nature of series [1]: Biological stability in mouse plasma. The series is classed as in vitro ADME.
Series [2] concerns the target hERG channel (Homo sapiens, UniProt Q12809). Kind of series: hERG channel inhibition. The note with it: @ 25 μM; < 5% at all tested concentrations (0.008-25.0 μM). The series is classed as biochemical. (In general: hERG is a cardiac potassium channel; its block is linked to QT prolongation.)
Series [3] can be described thus: Microsomal stability, mouse. Type of series: in vitro ADME. The note with it: mouse microsomes.
A short description of series [4]: Microsomal stability, rat. Type of series: in vitro ADME. To be noted: rat microsomes.
A short description of series [5]: Microsomal stability, human. Type of series: in vitro ADME. The note with it: human microsomes.
A short description of series [6]: Exposure. The series is classed as in vivo. The note with it: for CO: IV, dose 0.03 mg, av. weight 27 g; for AUC / Cmax / Tmax / half-life: in vivo, 0.03 mg.
The subject of series [7] is Caco2. Kind of series: PAMPA and Caco2 permeability analyses. Type of series: in vitro ADME. The note with it: data not shown. In general terms: PAMPA measures passive passage across an artificial lipid membrane.
A short description of series [8]: Chemical stability as a solution. Type of series: physicochemical. The note with it: both DMSO-based and aqueous.
Series [9] in a line: Long-term solubilization. The series is classed as physicochemical.
The test system of series [10] is phospholipidosis. Kind of series: Drug-induced phospholipidosis. Type of series: cell-based. To be noted: data not shown.
In series [11] the target is αVβ3 receptor (Homo sapiens, UniProt P05106+P06756). Kind of series: Activity versus the αVβ3 receptor. To be noted: manuscript in preparation.
Series [12] addresses T1, αIIbβ3 receptor (Homo sapiens, UniProt P05106+P08514). Kind of series: Priming of the receptor for fibrinogen binding. The note with it: manuscript in preparation.
For series [13], the target named is T1, αIIbβ3 receptor. Kind of series: β3 conformation by binding of a conformation-specific monoclonal antibody.
The target of series [14] is T1, αIIbβ3 receptor. Kind of series: Platelet aggregation. Type of series: cell-based.

T1 sequence (P08514 32-887 limits assumed): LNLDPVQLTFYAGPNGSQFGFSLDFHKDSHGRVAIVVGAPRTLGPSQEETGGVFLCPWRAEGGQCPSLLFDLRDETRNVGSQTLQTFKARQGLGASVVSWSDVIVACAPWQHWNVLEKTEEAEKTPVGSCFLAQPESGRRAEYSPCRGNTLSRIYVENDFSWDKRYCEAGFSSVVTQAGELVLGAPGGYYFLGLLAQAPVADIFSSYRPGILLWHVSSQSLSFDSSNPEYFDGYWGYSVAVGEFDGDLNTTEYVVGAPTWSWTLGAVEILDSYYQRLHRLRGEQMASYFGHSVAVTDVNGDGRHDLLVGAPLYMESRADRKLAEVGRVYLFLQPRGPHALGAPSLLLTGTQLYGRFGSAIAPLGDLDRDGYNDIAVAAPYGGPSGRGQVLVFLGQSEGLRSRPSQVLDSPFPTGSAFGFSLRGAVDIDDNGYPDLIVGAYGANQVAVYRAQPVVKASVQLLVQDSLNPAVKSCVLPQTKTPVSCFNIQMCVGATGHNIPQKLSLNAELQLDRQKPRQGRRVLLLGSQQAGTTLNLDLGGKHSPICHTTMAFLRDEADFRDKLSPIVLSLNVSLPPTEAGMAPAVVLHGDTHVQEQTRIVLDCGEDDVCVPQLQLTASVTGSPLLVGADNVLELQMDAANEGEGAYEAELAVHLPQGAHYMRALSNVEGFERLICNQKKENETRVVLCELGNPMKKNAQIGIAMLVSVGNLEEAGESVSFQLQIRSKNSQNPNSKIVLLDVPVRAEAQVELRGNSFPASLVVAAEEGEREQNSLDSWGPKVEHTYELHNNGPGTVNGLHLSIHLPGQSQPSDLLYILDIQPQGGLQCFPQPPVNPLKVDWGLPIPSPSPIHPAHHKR
T1 sequence (P08514 891-1039 partner limits assumed): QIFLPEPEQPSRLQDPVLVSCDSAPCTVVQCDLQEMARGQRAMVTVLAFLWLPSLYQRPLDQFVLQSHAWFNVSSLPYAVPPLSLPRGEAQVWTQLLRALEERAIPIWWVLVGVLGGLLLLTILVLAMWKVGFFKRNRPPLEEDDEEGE
T1 sequence (P05106 27-788): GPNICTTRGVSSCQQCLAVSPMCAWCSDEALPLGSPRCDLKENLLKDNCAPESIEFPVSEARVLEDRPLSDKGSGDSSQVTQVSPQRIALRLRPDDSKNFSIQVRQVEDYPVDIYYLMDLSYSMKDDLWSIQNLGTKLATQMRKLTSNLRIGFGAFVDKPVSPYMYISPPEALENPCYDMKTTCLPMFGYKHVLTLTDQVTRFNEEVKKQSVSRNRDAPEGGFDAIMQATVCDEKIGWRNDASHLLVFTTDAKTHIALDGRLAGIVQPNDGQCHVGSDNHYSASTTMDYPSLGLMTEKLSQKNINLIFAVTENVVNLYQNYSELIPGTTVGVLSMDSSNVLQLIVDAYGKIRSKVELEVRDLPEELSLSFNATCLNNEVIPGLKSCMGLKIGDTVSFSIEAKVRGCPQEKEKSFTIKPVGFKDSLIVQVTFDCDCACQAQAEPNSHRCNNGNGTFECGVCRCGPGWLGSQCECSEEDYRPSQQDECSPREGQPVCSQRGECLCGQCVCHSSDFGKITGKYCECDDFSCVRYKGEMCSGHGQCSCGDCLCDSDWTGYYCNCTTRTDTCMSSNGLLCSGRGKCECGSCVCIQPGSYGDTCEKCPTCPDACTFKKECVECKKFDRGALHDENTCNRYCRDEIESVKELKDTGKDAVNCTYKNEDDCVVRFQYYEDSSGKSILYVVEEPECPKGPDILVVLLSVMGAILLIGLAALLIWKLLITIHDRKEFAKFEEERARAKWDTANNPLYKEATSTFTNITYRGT
Sequence of hERG channel (Q12809 whole entry): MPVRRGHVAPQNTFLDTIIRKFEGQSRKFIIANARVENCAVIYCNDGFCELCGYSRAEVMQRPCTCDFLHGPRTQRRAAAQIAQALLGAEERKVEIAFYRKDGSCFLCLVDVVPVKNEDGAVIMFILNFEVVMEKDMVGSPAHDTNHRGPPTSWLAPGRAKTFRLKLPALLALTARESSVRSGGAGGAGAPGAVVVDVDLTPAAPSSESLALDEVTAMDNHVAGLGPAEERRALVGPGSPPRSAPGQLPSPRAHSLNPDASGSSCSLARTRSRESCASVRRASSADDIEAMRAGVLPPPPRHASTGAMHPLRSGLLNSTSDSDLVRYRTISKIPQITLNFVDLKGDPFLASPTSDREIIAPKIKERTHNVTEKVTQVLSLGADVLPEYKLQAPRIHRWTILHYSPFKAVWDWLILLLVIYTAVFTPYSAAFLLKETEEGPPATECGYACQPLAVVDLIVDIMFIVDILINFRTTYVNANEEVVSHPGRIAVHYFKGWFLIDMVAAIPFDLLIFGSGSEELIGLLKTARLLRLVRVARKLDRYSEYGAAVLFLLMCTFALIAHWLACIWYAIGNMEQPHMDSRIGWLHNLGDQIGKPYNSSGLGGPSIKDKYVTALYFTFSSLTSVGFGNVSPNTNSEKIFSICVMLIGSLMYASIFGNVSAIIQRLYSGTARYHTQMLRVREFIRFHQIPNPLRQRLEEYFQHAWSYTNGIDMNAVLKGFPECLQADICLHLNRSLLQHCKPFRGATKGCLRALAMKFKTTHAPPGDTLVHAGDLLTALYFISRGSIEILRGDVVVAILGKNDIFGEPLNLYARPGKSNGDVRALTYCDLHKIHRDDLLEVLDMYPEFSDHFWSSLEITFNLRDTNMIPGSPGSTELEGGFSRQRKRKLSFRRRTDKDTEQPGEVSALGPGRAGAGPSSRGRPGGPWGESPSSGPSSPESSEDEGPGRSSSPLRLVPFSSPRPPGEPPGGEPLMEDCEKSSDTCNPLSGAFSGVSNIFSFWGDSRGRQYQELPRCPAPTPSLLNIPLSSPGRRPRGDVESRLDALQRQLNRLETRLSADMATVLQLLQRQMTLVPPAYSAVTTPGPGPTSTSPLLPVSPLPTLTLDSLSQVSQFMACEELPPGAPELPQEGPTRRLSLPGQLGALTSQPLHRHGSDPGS
Sequence of αVβ3 receptor (P06756 31-889 limits assumed): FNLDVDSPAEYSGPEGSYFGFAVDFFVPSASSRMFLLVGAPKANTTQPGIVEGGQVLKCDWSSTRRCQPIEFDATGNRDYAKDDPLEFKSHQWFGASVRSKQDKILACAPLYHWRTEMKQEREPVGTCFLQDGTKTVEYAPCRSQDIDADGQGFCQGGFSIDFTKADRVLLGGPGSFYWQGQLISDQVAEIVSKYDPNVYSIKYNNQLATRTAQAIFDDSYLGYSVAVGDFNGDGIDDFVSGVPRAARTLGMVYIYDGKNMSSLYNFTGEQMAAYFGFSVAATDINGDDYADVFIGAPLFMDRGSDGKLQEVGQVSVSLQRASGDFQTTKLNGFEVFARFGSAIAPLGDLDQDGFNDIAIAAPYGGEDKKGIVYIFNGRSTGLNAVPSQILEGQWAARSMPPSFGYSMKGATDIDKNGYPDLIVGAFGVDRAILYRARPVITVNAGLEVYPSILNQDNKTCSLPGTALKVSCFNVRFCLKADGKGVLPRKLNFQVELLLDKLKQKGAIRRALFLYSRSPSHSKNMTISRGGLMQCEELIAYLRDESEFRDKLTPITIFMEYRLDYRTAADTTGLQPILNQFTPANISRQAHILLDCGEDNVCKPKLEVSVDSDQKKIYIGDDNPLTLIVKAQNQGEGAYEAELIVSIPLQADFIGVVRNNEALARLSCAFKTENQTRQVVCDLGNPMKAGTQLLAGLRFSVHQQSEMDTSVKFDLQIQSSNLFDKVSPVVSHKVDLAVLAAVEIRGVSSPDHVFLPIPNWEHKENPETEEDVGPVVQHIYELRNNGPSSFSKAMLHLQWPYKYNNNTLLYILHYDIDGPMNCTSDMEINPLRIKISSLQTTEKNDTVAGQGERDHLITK
Sequence of αVβ3 receptor (P06756 891-1048 partner limits assumed): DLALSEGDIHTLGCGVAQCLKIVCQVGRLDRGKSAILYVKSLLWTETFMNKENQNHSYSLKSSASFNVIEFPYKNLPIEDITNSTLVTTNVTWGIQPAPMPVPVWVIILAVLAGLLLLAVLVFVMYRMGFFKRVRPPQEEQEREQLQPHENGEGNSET
Sequence of αVβ3 receptor (P05106 27-788): as the sequence (P05106 27-788) above

With `NCC(=O)Nc1cccc(-c2nn3c(=O)cc(N4CCNCC4)nc3s2)c1` [compound 2], the “Biological Stability” value in [1] (15 min.) is recorded as 97.5 (15 min.); in series [1] (60 min.), 93.3 (60 min.); in series [1] (120 min.), 84.5 (120 min.). Besides, the “hERG Inhibition” value in [2] is below 5% @ 25 μM. In addition, the t1/2 entry in series [3] is “> det. limit (mouse)”; in series [4] it was “> det. limit (rat)”; in [5] it was “> det. limit (human)”. In [6], this compound had a CO of 1.354 µg/mL. Besides, the figures for the AUC in series [6] (ip) and in series [6] (iv) were 45 ng·h/mL and 123 ng·h/mL, respectively. In [6] (ip), the concentration peaked (Cmax) at 222 ng/mL. For the same compound, the time to peak (Tmax) in series [6] (ip) is 4.8 min. Further, the half-life in [6] (iv) is 4.2 min. In addition, the “PAMPA and Caco2 permeability analyses” value in series [7] is on record as “unlikely that either agent possesses high oral bioavailability”.

As for `NCC(=O)Nc1cc(-c2nn3c(=O)cc(N4CCNCC4)nc3s2)ccn1` [compound 14], in series [8], the “chemical stability as a solution” value was “poor chemical stability”.

Regarding `NCC(=O)Nc1cncc(-c2nn3c(=O)cc(N4CCNCC4)nc3s2)c1` [compound 13], in [1] (15 min.), the “Biological Stability” value is 100 (15 min.). The “Biological Stability” value in series [1] (60 min.) was 99.5 (60 min.). The “Biological Stability” value in series [1] (120 min.) is 91.7 (120 min.). In addition, in series [2], the “hERG Inhibition” value was below 5% @ 25 μM. The CO in series [6] turned out to be 1.145 µg/mL. Further, in [6] (ip), the exposure (AUC) came to 87 ng·h/mL, the Cmax came to 405 ng/mL and the time of peak concentration (Tmax) came out at 4.8 min. In series [6] (iv), this compound gave an exposure (AUC) of 137 ng·h/mL and a half-life of 4.2 min. Further, the “PAMPA and Caco2 permeability analyses” value in series [7] is “unlikely that either agent possesses high oral bioavailability”. The compound also displayed a solubility in series [9] of at least 60 mg/mL. Further, in [10], the induction of phospholipidosis entry is reported as “No appreciable induction of phospholipidosis”. Moreover, in series [11], the “activity versus the αVβ3 receptor” value is recorded as “does not possess any activity”. Further, in [12], the “priming of the receptor for fibrinogen binding” value was “neither primes the receptor for fibrinogen binding”. Moreover, the “change of β3 conformation” value in series [13] is given as “nor changes the β3 conformation”.

`CCc1nn2c(=O)cc(N3CCNCC3)nc2s1` [compound 1] showed an IC50 in [14] of 4 to 10 µM.

The term AUC denotes concentration integrated over time. By Cmax is commonly meant the peak of the concentration-time curve. The term Tmax denotes the time at which the peak concentration occurs. A word on the half-life: it is the time in which the quantity being followed falls by half. Read a high half-life as slow loss. A word on the solubility: it is how much of the substance goes into solution per volume. Higher therefore signals a readily soluble substance. Broadly, the IC50 is the point on the concentration scale where inhibition reaches its midpoint. The low end stands for inhibition by little substance, the high end for a need for much substance.

Source of the values: publication PMC3951875 (Bioorganic & medicinal chemistry letters, 2014).
